Experiments:
[1] = tested on: Staphylococcus epidermidis; assay: TLC bioautography antibacterial assay, S. epidermidis; format: cell-based; details: qualitative
Method: (§1) The crude (1st methanolic) extract of M. latifolia bark and five chromatographic fractions obtained using the purification process outlined in Example 1 were submitted for TLC bioautography studies for qualitative determination of antibacterial activity.
(§2) Briefly, a reference plate was prepared by loading the samples on a silica gel TLC plate which was developed using an established solvent system (10% ethyl acetate in petroleum ether) to separate their components based on polarity. The developed plates were then visualised using 5% v/v sulfuric acid in methanol+0.1% w/v vanillin in ethanol, followed by heat. Using this method, Balaenone was distinguished as a bright pink to red spot (see FIG. 7).
(§3) Multiple copies of this plate were then prepared and developed using the same solvent system, but instead are visualised by pouring agar inoculated/spiked with one of the following micro-organisms (see below) and allowed to incubate before visualisation with a reduction dye.

[2] = tested on: Staphylococcus aureus; assay: TLC bioautography antibacterial assay, S. aureus; format: cell-based; details: qualitative
Method: as §1, §2, §3

[3] = Storage stability of Balaenone; format: physicochemical; details: away from light and oxygen
Excerpt: Final purification of trans-Balaenone on silica gel separated it from an oxygenated aromatic compound, subsequently identified as halifordin (8). Without being bound by theory, it is believed that degradation is due to the presence of halifordin (8), which is also present in the methanol extract of M. latifolia.
In a separate experiment, purified trans-Balaenone was photochemically reacted with atmospheric oxygen in the presence of Rose Bengal (another known photogenerator of singlet oxygen), which generated 7b among other oxidation products.
Removal of halifordin (8) from the extract provides a purified composition of trans-Balaenone in which trans-Balaenone is stable at room temperature, when stored away from light and oxygen. It is believed that the same process would occur with respect to cis-Balaenone.

Compound	antibacterial activity (zones of inhibition) [1]	antibacterial activity (zones of inhibition) [2]	stability on storage ([3]; cool temperatures)	stability on storage ([3]; room temperature, in the absence of halifordin (8))
CC1=C2c3c(C)coc3CCC(C)C2CC1=O (stereo not shown) [Balaenone]	zones of inhibition	zones of inhibition	–	–
CC1=C2c3c(C)coc3CC[C@H](C)[C@H]2CC1=O [trans-Balaenone, (6S,6aR)-1,6,9-trimethyl-5,6,6a,7-tetrahydroazuleno[5,4-b]furan-8(4H)-one]	–	–	quite stable	essentially stable
